For the test, the target named is T1, acetylcholine muscarinic M1 receptor (CHOnfat/hM1 cells) (Homo sapiens, UniProt P11229).
T1 construct: expressed in transfected cells; host or cells: CHOnfat cells (CHOnfat/hM1; Geneticin-selected)
T1 sequence (P11229 1-460): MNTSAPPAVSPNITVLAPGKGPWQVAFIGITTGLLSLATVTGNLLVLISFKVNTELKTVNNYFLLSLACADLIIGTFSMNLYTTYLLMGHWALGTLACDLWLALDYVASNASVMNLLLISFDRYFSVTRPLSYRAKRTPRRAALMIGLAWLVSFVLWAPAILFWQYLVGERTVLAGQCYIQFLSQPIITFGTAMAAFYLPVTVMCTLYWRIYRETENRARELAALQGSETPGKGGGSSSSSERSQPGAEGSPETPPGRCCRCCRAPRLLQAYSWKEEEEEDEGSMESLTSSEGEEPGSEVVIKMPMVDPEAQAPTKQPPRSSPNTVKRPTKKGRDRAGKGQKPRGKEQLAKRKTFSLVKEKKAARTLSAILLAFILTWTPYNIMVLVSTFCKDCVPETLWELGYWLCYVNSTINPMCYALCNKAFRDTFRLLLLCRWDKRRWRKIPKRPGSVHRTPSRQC
The test can be described thus: muscarinic M1 FLIPR intracellular calcium assay (positive allosteric modulation). In kind it is cell-based. Particulars: FLIPR Ca2+, 4 min preincubation, then EC20 acetylcholine (3 nM final), read-out: IP Value (inflection point). The protocol: The assay studies the effect of one or several concentrations of test compounds on basal or acetylcholine-stimulated Ca^2+ levels using FLIPR.
Compounds are prepared and subjected to a preincubation period of 4 min. Thereafter, a single EC20 concentration of acetylcholine is added to each well (3 nM final). The intracellular Ca^2+ level of each sample is measured and compared to an acetylcholine control to determine any modulatory activity.
Cells: CHOnfat/hM1, hM2, hM3 or hM4 cells are plated 24 hr before the assay at a density of 18,000 cells/well (100 μL) in a 384 well plate. CHOnfat/hM1 and CHOnfat/hM3 Growth Medium: 90% DMEM (Hi Glucose); 10% HI FBS; 2 mM L-glutamine; 0.1 mM NEAA; Pen-Strep; and 1 mg/ml Geneticin, are added. For M2Gqi5CHOnfat and M4Gqi5CHOnfat cells, an additional 600 ug/ml hygromycin is added.
Equipment: 384 well plate, 1204 addition plate; 96-well Whatman 2 ml Uniplate Incubator, 37° C., 5% CO2; Skatron EMBLA-384 Plate Washer; Multimek Pipetting System; Genesis Freedom 200 System; Mosquito System; Temo Nanoliter Pipetting System; and FLIPR^384 Fluorometric Imaging Plate Reader System are used.
Buffers. Assay Buffer: Hanks Balanced Salt Solution, with 20 mM Hepes, 2.5 mM Probenecid (Sigma P-8761) first dissolved in 1 N NaOH, 1% Bovine Serum Albumin (Sigma A-9647). Dye Loading Buffer: Assay Buffer plus 1% Fetal Bovine Serum and Fluo-4AM/Pluronic Acid Mixture. 2 mM Fluo-4AM ester stock in DMSO (Molecular Probes F-14202) Concentration of 2 μM in buffer for a final concentration of 1 μM in Assay. 20% Pluronic Acid Solution stock, with concentration of 0.04% in Buffer, 0.02% in Assay.
65 μL of 2 mM Fluo-4AM are mixed with 130 μL of 20% Pluronic Acid. The resulting solution and 650 μL FBS is added to the assay buffer for a total volume of 65 mL. Positive Controls: 4-Br-A23187: 10 mM in DMSO; final concentration 10 μM. Acetylcholine: 10 mM in water, working stock at both 20 μM and 30 μM in assay buffer, final concentration of 10 μM. This is used to check the maximum stimulation of the CHOK1/hM1 cells, 20 μM (2×) acetylcholine is added in the preincubation part of the assay, and the 30 μM (3×) stock is added in the second part. (EC20)Acetylcholine: 10 mM in water, working stock of 9 nM (3×), and final concentration in assay is 3 nM. This is used after the preincubation with test compounds. Addition of the EC20 Acetylcholine to each well with a test compound will ascertain any modulator activity. 24 wells contain 3 nM Acetylcholine alone as a control.
Determining Activity of Putative Compounds:
Screening Plate Compounds are titrated in 96-well plates (columns 2-11), 100% DMSO, started at a concentration of 15 mM (150× stock concentration), and 3-fold serial dilutions using Genesis Freedom200 System. Four 96-well plates are combined into a 384-well plate using Mosquito Nanoliter Pipetting System by transferring 1 μl of serial diluted compounds to each well, and 1 mM acetylcholine (100× stock concentration) were added as a control. Using Temo, 49 μl assay buffer is added to each well of the 384-well plate right before assay.
In a 96-well Whatman 2 ml Uniplate, 9 nM Acetylcholine (3×) is pipetted into wells corresponding to the screening compounds, and into control wells. The 30 μM acetylcholine control (3×) is added into control wells, and the 3× agonist plate is transferred into a 384 well plate.
Cells are washed three times with 100 μl, of buffer, leaving 30 μl of buffer in each well. Using Multimek, 30 μL of Dye Loading Buffer is added into each well and incubated at 37° C., 5% CO2 for up to one hr.
After 60 min, the cells are washed three times with 100 μl of buffer, leaving 30 μl, of buffer in each well. The cell plate, screening plate, and agonist addition plates are placed on the platform in the FLIPR and the door closed. A signal test to check background fluorescence and basal fluorescence signal is performed. Laser intensity is adjusted if necessary. […]

Turning to `O=c1c2cn(Cc3nccc4ccccc34)c3ccccc3c-2nn1-c1ccccc1F` [Example 128], the EC50 amounted to 1290 nM.

The values are drawn from patent US8895580B2, “Quinolinone-pyrazolone M1 receptor positive allosteric modulators” (Merck Sharp & Dohme Corp., priority 2009, dated 2014).
